Earlier results, collected in patent publication EP2391353B1, “PHARMACEUTICAL COMPOSITIONS OF TRIMETAZIDINE” (Lupin Limited, priority 2009, dated 2010).

Settings: administered orally

## COc1ccc(CN2CCNCC2)c(OC)c1OC.Cl.Cl [Trimetazidine dihydrochloride, 1-(2,3,4-trimethoxybenzyl)-piperazine dihydrochloride]
  Tmax: around 1.8 ± 0.7 hours
  plasma half-life: around 6.0 ± 1.4 hours
